What was measured:
Details in all cases: compound at 10 μM
Human δ-opioid (DOP) = molecular target: T1, Human δ-opioid (DOP) (Homo sapiens, UniProt P41143); test: Radioligand binding, human δ-opioid (DOP) membranes, FlashPlate, [3H]-Bremazocine
T1 construct: purchased Perkin Elmer Biosignal
How it was run: (§1)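 Cloned human receptor membranes were coated onto FlashPlate wells and incubated with radioligand and compound (added from a 0.5 mM DMSO daughter plate) for 1 hour at room temperature in the dark. Scintillation counting gave percent inhibition, with DMSO defining total and reference ligand defining non-specific binding.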

Human κ-Opioid (KOP) = molecular target: T2, Human κ-Opioid (KOP) (Homo sapiens, UniProt P41145); test: Radioligand binding, human κ-opioid (KOP) membranes, filtration, [3H]-Diprenorphine
T2 construct: purchased Perkin Elmer Biosignal
T2 sequence (P41145 whole entry): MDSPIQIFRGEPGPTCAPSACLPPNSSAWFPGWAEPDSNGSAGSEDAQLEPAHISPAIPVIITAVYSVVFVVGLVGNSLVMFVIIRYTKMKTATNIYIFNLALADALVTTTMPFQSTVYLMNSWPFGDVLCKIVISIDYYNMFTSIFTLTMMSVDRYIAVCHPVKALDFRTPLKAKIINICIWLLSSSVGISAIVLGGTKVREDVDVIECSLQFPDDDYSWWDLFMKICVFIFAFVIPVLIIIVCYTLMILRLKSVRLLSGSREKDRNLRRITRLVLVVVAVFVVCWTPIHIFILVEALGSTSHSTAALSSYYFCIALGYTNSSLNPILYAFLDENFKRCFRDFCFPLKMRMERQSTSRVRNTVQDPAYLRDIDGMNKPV
How it was run: (§2)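 Filtration binding on cloned human receptor membranes (1 Unit/well), [125I]-Substance P for NK1 and [3H]-Diprenorphine for KOP, 1 h at room temperature. Filters PEI-presoaked, washed with cold 50 mM Tris-HCl pH 7.4, counted by scintillation; percent inhibition calculated, reference ligand defining non-specific binding.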

Human Melanocortin (MC3) = molecular target: T3, Human Melanocortin (MC3) (Homo sapiens, UniProt P41968); test: Radioligand binding, human melanocortin MC3 membranes, FlashPlate, [125I]-NDP-αMSH
T3 construct: purchased Perkin Elmer Biosignal
T3 sequence (P41968 whole entry): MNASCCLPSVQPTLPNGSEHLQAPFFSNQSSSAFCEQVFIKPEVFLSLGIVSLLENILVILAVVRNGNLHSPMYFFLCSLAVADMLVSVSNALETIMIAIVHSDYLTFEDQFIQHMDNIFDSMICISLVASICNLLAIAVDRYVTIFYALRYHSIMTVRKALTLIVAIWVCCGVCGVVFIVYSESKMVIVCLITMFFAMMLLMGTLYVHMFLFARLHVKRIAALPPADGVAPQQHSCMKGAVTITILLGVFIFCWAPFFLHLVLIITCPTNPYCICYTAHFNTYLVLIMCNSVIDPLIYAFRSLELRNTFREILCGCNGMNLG
How it was run: as §1

Human Melanocortin (MC4) = molecular target: T4, Human Melanocortin (MC4) (Homo sapiens, UniProt P32245); test: Radioligand binding, human melanocortin MC4 membranes, FlashPlate, [125I]-NDP-αMSH
T4 construct: purchased Perkin Elmer Biosignal
T4 sequence (P32245 whole entry): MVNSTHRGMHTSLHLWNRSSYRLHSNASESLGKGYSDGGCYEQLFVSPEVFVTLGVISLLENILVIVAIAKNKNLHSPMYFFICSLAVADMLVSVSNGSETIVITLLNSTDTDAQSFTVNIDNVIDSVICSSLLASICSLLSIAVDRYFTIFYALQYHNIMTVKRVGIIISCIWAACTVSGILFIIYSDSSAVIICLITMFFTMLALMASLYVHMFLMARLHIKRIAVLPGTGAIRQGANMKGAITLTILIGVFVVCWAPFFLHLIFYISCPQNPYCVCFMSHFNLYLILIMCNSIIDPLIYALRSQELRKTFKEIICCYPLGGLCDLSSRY
How it was run: as §1

Human melanocortin (MC5) = molecular target: T5, Human melanocortin (MC5) (Homo sapiens, UniProt P33032); test: Radioligand binding, human melanocortin MC5 membranes, FlashPlate, [125I]-NDP-αMSH
T5 construct: purchased Perkin Elmer Biosignal
T5 sequence (P33032 whole entry): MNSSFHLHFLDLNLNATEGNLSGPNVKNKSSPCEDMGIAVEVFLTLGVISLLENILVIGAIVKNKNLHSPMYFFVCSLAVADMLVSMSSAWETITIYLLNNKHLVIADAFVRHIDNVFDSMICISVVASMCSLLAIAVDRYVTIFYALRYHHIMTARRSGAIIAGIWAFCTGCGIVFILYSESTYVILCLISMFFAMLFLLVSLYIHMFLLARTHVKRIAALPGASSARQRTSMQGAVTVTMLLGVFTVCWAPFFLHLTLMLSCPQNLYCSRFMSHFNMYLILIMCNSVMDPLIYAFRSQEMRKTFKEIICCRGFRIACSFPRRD
How it was run: as §1

[1] = molecular target: T6, Human melanin-concentrating hormone (MCH1) (Homo sapiens, UniProt Q99705); test: Radioligand binding, human melanin-concentrating hormone MCH1 membranes, FlashPlate, [125I]-S36057
T6 construct: purchased Perkin Elmer Biosignal
T6 sequence (Q99705 whole entry): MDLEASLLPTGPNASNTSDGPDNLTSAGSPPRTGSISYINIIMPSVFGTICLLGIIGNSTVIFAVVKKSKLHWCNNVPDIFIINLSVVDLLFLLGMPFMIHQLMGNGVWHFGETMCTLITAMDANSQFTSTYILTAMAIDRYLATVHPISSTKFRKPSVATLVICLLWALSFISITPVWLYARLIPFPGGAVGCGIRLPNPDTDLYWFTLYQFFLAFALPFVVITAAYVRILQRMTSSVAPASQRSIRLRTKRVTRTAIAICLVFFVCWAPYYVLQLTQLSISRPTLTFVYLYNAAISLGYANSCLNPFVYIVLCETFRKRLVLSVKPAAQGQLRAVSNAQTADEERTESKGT
How it was run: as §1

Human μ-opioid (MOP) = molecular target: T7, Human μ-opioid (MOP) (Homo sapiens, UniProt P35372); test: Radioligand binding, human μ-opioid (MOP) membranes, FlashPlate, [3H]-Naloxone
T7 construct: purchased Perkin Elmer Biosignal
T7 sequence (P35372 whole entry): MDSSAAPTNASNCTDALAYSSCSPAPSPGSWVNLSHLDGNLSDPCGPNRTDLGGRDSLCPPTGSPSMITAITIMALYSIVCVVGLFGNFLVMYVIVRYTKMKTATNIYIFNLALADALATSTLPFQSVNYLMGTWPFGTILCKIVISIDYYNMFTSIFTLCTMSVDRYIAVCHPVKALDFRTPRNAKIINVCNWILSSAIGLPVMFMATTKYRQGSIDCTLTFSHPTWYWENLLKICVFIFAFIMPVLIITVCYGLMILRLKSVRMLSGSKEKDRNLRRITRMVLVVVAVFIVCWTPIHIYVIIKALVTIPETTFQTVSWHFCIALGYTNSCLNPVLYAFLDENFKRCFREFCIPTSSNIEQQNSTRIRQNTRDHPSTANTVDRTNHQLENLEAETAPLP
How it was run: as §1

Human neurokinin (NK1) = molecular target: T8, Human neurokinin (NK1) (Homo sapiens, UniProt P25103); test: Radioligand binding, human neurokinin NK1 membranes, filtration, [125I]-Substance P
T8 construct: purchased Perkin Elmer Biosignal
T8 sequence (P25103 whole entry): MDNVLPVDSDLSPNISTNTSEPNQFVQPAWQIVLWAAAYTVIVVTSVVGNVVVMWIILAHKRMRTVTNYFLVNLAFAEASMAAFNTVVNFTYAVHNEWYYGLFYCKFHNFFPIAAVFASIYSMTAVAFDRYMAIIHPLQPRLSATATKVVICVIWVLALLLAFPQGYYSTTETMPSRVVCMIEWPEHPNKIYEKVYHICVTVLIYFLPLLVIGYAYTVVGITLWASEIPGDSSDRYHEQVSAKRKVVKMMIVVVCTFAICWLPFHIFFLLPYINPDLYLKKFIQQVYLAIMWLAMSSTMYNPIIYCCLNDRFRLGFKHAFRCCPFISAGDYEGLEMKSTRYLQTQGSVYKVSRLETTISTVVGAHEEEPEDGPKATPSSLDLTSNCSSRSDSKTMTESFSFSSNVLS
How it was run: as §2

[2] = molecular target: T9, Human neuropeptide Y (NPY-Y1) (Homo sapiens, UniProt P25929); test: Radioligand binding, human neuropeptide Y NPY-Y1 membranes, FlashPlate, [125I]-PYY
T9 construct: purchased Perkin Elmer Biosignal
T9 sequence (P25929 1-384): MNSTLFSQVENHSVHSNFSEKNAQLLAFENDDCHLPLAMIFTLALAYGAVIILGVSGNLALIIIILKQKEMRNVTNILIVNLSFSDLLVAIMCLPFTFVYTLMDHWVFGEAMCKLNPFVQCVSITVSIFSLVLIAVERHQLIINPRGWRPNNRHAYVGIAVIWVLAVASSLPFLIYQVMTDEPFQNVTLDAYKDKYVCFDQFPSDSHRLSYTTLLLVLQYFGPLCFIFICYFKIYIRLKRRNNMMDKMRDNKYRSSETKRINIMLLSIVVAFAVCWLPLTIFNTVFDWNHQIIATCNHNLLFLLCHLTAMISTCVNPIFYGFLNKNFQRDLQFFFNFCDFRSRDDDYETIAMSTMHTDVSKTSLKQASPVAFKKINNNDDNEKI
How it was run: as §1

Human opioid (ORL1) = molecular target: T10, Human opioid (ORL1) (Homo sapiens, UniProt P41146); test: Radioligand binding, human opioid ORL1 membranes, FlashPlate, [125I]-Nociceptin
T10 construct: purchased Perkin Elmer Biosignal
T10 sequence (P41146 whole entry): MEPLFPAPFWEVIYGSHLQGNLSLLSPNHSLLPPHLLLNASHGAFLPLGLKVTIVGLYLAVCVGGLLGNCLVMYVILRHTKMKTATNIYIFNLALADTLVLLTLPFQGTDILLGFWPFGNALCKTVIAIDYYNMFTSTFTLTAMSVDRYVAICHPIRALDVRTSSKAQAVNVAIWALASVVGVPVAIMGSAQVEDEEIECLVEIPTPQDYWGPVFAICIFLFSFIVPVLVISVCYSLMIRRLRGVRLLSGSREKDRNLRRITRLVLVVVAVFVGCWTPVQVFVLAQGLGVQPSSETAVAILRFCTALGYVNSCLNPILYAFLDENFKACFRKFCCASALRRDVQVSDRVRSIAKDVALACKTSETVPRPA
How it was run: as §1

Mouse urotensin (mUR2) = molecular target: T11, Mouse urotensin (mUR2) (Mus musculus, UniProt Q8VIH9); test: Radioligand binding, mouse urotensin mUR2 membranes, FlashPlate, [125I]-Urotensin II
T11 construct: purchased Perkin Elmer Biosignal
T11 sequence (Q8VIH9 1-385): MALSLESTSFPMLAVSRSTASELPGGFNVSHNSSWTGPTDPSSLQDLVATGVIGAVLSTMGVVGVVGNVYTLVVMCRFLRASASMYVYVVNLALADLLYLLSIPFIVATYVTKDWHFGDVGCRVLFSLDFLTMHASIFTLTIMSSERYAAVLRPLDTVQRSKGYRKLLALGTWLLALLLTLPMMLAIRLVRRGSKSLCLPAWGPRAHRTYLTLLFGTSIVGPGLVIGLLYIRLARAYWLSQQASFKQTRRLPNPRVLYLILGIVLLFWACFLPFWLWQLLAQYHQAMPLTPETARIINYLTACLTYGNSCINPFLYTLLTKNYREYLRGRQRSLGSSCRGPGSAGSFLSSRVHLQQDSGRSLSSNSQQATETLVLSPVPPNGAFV
How it was run: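 Cloned mouse urotensin (mUR2) receptor membranes from Perkin Elmer Biosignal were immobilized in FlashPlate microplates using a proprietary coating. Each well got 19.5 μl buffer, then 0.5 μl of DMSO, reference ligand, or compound. Adding 5 μl of [125I]-Urotensin II, diluted to 5× final concentration in binding buffer, started binding. Plates were sealed with TopSeal-A and incubated 1 hour at room temperature in the dark. Wells were counted for 30 seconds each on a TopCount after a 60-second delay, and percentage inhibition was calculated.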

T1 sequence (P41143 whole entry): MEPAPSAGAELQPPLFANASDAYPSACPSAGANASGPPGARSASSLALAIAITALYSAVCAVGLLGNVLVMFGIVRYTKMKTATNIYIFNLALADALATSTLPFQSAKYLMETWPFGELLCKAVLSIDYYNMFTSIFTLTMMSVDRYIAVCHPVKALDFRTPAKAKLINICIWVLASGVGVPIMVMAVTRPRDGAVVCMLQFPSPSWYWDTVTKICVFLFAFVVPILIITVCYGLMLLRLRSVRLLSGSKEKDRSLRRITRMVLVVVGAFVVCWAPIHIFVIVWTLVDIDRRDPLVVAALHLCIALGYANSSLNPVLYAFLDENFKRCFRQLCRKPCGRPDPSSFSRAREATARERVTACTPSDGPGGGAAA

Row | SMILES | A1 radioligand binding, percentage inhibition (Human δ-opioid (DOP); [3H]-Bremazocine) | A2 radioligand binding, percentage inhibition (Human κ-Opioid (KOP); [3H]-Diprenorphine) | A3 radioligand binding, percentage inhibition (Human Melanocortin (MC3); [125I]-NDP-αMSH) | A4 radioligand binding, percentage inhibition (Human Melanocortin (MC4); [125I]-NDP-αMSH) | A5 radioligand binding, percentage inhibition (Human melanocortin (MC5); [125I]-NDP-αMSH) | A6 radioligand binding, percentage inhibition ([1]; [125I]-S36057) | A7 radioligand binding, percentage inhibition (Human μ-opioid (MOP); [3H]-Naloxone) | A8 radioligand binding, percentage inhibition (Human neurokinin (NK1); [125I]-Substance P) | A9 radioligand binding, percentage inhibition ([2]; [125I]-PYY) | A10 radioligand binding, percentage inhibition (Human opioid (ORL1); [125I]-Nociceptin) | A11 radioligand binding, percentage inhibition (Mouse urotensin (mUR2); [125I]-Urotensin II) | also measured
1 | CO[C@H]1[C@H](O)[C@@H](COCc2cccc(O)c2)OC(OCc2ccc3ccccc3c2)[C@@H]1NC(=O)CCCNC(=N)N (stereo partly shown) [compound 152] | − (“−” indicates less than 50% inhibition at 10 μM) | − (“−” indicates less than 50% inhibition at 10 μM) | − (“−” indicates less than 50% inhibition at 10 μM) | − (“−” indicates less than 50% inhibition at 10 μM) | − (“−” indicates less than 50% inhibition at 10 μM) | − (“−” indicates less than 50% inhibition at 10 μM) | + (“+” indicates greater than 50% inhibition at 10 μM) | − (“−” indicates less than 50% inhibition at 10 μM) | − (“−” indicates less than 50% inhibition at 10 μM) | − (“−” indicates less than 50% inhibition at 10 μM) | − (“−” indicates less than 50% inhibition at 10 μM) | 
2 | CSC1O[C@H](COCc2ccc3ccccc3c2)[C@@H](O)[C@@H](OCc2ccc(-c3ccccc3)cc2)[C@H]1NC(=O)CCCN (stereo partly shown) [compound 299] |  |  |  |  |  |  |  |  |  |  |  | A1: inhibition of radioligand binding, human δ-opioid (DOP) (Human δ-opioid (DOP); [3H]-Bremazocine): − (“−” indicates less than 50% inhibition at 10 μM); A2: inhibition of radioligand binding, human κ-opioid (KOP) (Human κ-Opioid (KOP); [3H]-Diprenorphine): − (“−” indicates less than 50% inhibition at 10 μM); A3: inhibition of radioligand binding, human melanocortin (MC3) (Human Melanocortin (MC3); [125I]-NDP-αMSH): − (“−” indicates less than 50% inhibition at 10 μM); A4: inhibition of radioligand binding, human melanocortin (MC4) (Human Melanocortin (MC4); [125I]-NDP-αMSH): + (“+” indicates greater than 50% inhibition at 10 μM); A5: inhibition of radioligand binding, human melanocortin (MC5) (Human melanocortin (MC5); [125I]-NDP-αMSH): − (“−” indicates less than 50% inhibition at 10 μM); A6: inhibition of radioligand binding, human melanin-concentrating hormone (MCH1) ([1]; [125I]-S36057): − (“−” indicates less than 50% inhibition at 10 μM); A7: inhibition of radioligand binding, human μ-opioid (MOP) (Human μ-opioid (MOP); [3H]-Naloxone): − (“−” indicates less than 50% inhibition at 10 μM); A8: inhibition of radioligand binding, human neurokinin (NK1) (Human neurokinin (NK1); [125I]-Substance P): + (“+” indicates greater than 50% inhibition at 10 μM); A9: inhibition of radioligand binding, human neuropeptide Y (NPY-Y1) ([2]; [125I]-PYY): − (“−” indicates less than 50% inhibition at 10 μM); A10: inhibition of radioligand binding, human opioid (ORL1) (Human opioid (ORL1); [125I]-Nociceptin): − (“−” indicates less than 50% inhibition at 10 μM); A11: inhibition of radioligand binding, mouse urotensin (mUR2) (Mouse urotensin (mUR2); [125I]-Urotensin II): − (“−” indicates less than 50% inhibition at 10 μM)
3 | CO[C@H]1[C@H](O)[C@@H](COCc2ccccc2)OC(OCc2ccc(-c3ccccc3)cc2)[C@@H]1NC(=O)CCCNC(=N)N (stereo partly shown) [compound 61] |  |  |  |  |  |  |  |  |  |  |  | A1 radioligand binding inhibition (Human δ-opioid (DOP); human δ-opioid (DOP) membranes): − (“−” indicates less than 50% inhibition at 10 μM); A2 radioligand binding inhibition (Human κ-Opioid (KOP); human κ-opioid (KOP) membranes): + (“+” indicates greater than 50% inhibition at 10 μM); A3 radioligand binding inhibition (Human Melanocortin (MC3); human melanocortin MC3 membranes): − (“−” indicates less than 50% inhibition at 10 μM); A4 radioligand binding inhibition (Human Melanocortin (MC4); human melanocortin MC4 membranes): − (“−” indicates less than 50% inhibition at 10 μM); A5 radioligand binding inhibition (Human melanocortin (MC5); human melanocortin MC5 membranes): + (“+” indicates greater than 50% inhibition at 10 μM); A6 radioligand binding inhibition ([1]; human MCH1 membranes): − (“−” indicates less than 50% inhibition at 10 μM); A7 radioligand binding inhibition (Human μ-opioid (MOP); human μ-opioid (MOP) membranes): + (“+” indicates greater than 50% inhibition at 10 μM); A8 radioligand binding inhibition (Human neurokinin (NK1); human neurokinin NK1 membranes): + (“+” indicates greater than 50% inhibition at 10 μM); A9 radioligand binding inhibition ([2]; human NPY-Y1 membranes): − (“−” indicates less than 50% inhibition at 10 μM); A10 radioligand binding inhibition (Human opioid (ORL1); human ORL1 membranes): − (“−” indicates less than 50% inhibition at 10 μM); A11 radioligand binding inhibition (Mouse urotensin (mUR2); mouse urotensin mUR2 membranes): − (“−” indicates less than 50% inhibition at 10 μM)
4 | CO[C@H]1[C@H](O)[C@@H](COCc2ccc(-c3ccccc3)cc2)OC(OCc2ccc(Cl)cc2)[C@@H]1NC(=O)CCCN (stereo partly shown) [compound 95] | − (“−” indicates less than 50% inhibition at 10 μM) | − (“−” indicates less than 50% inhibition at 10 μM) | − (“−” indicates less than 50% inhibition at 10 μM) | + (“+” indicates greater than 50% inhibition at 10 μM) | + (“+” indicates greater than 50% inhibition at 10 μM) | + (“+” indicates greater than 50% inhibition at 10 μM) | − (“−” indicates less than 50% inhibition at 10 μM) | + (“+” indicates greater than 50% inhibition at 10 μM) | − (“−” indicates less than 50% inhibition at 10 μM) | + (“+” indicates greater than 50% inhibition at 10 μM) | − (“−” indicates less than 50% inhibition at 10 μM) | 
5 | CO[C@H]1[C@H](O)[C@@H](COCc2ccc(Cl)cc2)OC(OCc2ccc(Cl)cc2)[C@@H]1NC(=O)CCCN (stereo partly shown) [compound 107] | − (“−” indicates less than 50% inhibition at 10 μM) | − (“−” indicates less than 50% inhibition at 10 μM) | − (“−” indicates less than 50% inhibition at 10 μM) | + (“+” indicates greater than 50% inhibition at 10 μM) | + (“+” indicates greater than 50% inhibition at 10 μM) | − (“−” indicates less than 50% inhibition at 10 μM) | − (“−” indicates less than 50% inhibition at 10 μM) | + (“+” indicates greater than 50% inhibition at 10 μM) | − (“−” indicates less than 50% inhibition at 10 μM) | − (“−” indicates less than 50% inhibition at 10 μM) | − (“−” indicates less than 50% inhibition at 10 μM) | 

Reference: patent US20080009418A1, “Selective Inhibitors” (Alchemia LTD., priority 2004, published 2008)
